Laboratory results published in patent publication US20080045514A1 (Cytovia, Inc., priority 2006, published 2008).
Structures can show the parent of a compound that is named as a salt.

Key:
Assay type in all cases: cell-based
[1] = system: human B cell lymphoblastoid cell line Ramos; assay: Caspase cascade activation (EC50), Ramos; details: Homo sapiens, RAMOS cells, read-out: caspase potency (EC50) RAMOS
Experimental: (§1) Human breast cancer cell lines T-47D, human hepatocellular carcinoma cell line SNU398, human colon carcinoma cell line HCT116, human cancer cell line H1299, human Burkitt's lymphoma cell line Namalwa, human lymphoma cell line Raji, and human B cell lymphoblastoid cell line Ramos were grown according to media component mixtures designated by American Type Culture Collection+10% FCS (Invitrogen Corporation), in a 5% CO2-95% humidity incubator at 37° C. T-47D and H1299 cells were maintained at a cell density between 50 and 80% confluency at a cell density of 0.1 to 0.6×10^6 cells/mL. Cells were harvested at 600×g and resuspended at 0.65×10^6 cells/mL into appropriate media+10% FCS. An aliquot of 22.5 μL of cells was added to a well of a 384-well microtiter plate containing 2.5 μL of a 10% DMSO in RPMI-1640 media solution containing 0.16 to 100 μM of 3-(2-chlorophenyl)-6-(3,4-methylenedioxyphenyl)-7H-[1,2,4]triazolo[3,4-b][1,3,4]thiadiazine or other test compound (0.016 to 10 μM final). An aliquot of 22.5 μL of cells was added to a well of a 384-well microtiter plate containing 2.5 μL of a 10% DMSO in RPMI-1640 media solution without test compound as the control sample. The samples were mixed by agitation and then incubated at 37° C. for 48 h in a 5% CO2-95% humidity incubator. After incubation, the samples were removed from the incubator and 25 μL of a solution containing 14 μM of N—(Ac-DEVD)-N′-ethoxycarbonyl-R110 (SEQ ID No.:1) fluorogenic substrate (Cytovia, Inc.; WO99/18856), 20% sucrose (Sigma), 20 mM DTT (Sigma), 200 mM NaCl (Sigma), 40 mM Na PIPES buffer pH 7.2 (Sigma), and 500 μg/mL lysolecithin (Calbiochem) was added. The samples were mixed by agitation and incubated at room temperature. Using a fluorescent plate reader (Model SPECTRAfluor Plus, Tecan), an initial reading (T=0) was made approximately 1-2 min after addition of the substrate solution, employing excitation at 485 nm and emission at 530 nm, to determine the background fluorescence of the control sample. After the 3 h incubation, the samples were read for fluorescence as above (T=3 h). Calculation: The Relative Fluorescence Unit values (RFU) were used to calculate the sample readings as follows: RFU(T=3H)−Control RFU(T=0)=Net RFU(T=3h) The activity of caspase cascade activation was determined by the ratio of the net RFU value for 3-(2-chlorophenyl)-6-(3,4-methylenedioxyphenyl)-7H-[1,2,4]triazolo[3,4-b][1,3,4]thiadiazine (Example P) or other test compound to that of control samples. The EC50 (nM) was determined by a sigmoidal dose-response calculation (Prism 3.0, GraphPad Software Inc.).

[2] = system: human breast cancer cell line T-47D; assay: Caspase cascade activation (EC50), T-47D; details: Homo sapiens; T47D cells; caspase cascade activation; read-out: caspase potency (EC50) T47D
Method in brief: (§2)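 Fluorogenic DEVD-R110 cleavage at 485/530 nm gives the read-out, taken 3 h after substrate addition and corrected by the control's T=0 background. Compound-treated over control net RFU ratio was fitted sigmoidally for EC50. Cells had been treated 48 h at 0.016 to 10 μM final.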

[3] = system: human hepatocellular carcinoma cell line SNU398; assay: Caspase cascade activation (EC50), SNU398; details: Homo sapiens, SNU-398; SNU398 cells; caspase cascade activation; read-out: caspase potency (EC50) SNU398
Method in brief: as §2

[4] = system: human Burkitt's lymphoma cell line Namalwa; assay: Caspase cascade activation (EC50), Namalwa; details: Homo sapiens, Burkitts lymphoma cell; Namalwa cells; caspase cascade activation; read-out: caspase potency (EC50) Namalwa
Method in brief: as §2

[5] = system: human B cell lymphoblastoid cell line Ramos; assay: Inhibition of cell proliferation (GI50), Ramos; details: Homo sapiens; Ramos cells, 48 h, CellTiter-Glo
Experimental: (§3) Human breast cancer cell lines T-47D, human hepatocellular carcinoma cell line SNU398, human colon carcinoma cell line HCT116, human lung cancer cell line H1299, human leukemia cell line K562, human lymphoma cell line Raji, human B cell lymphoblastoid cell line Ramos, and human Burkitt's lymphoma cell line Namalwa were grown and harvested as in Example 100. An aliquot of […] of cells (4.4×10^4 cells/mL) was added to a well of a 96-well microtiter plate containing 5 μL of a 10% DMSO in RPMI-1640 media solution containing 10 nM to 100 μM of 3-(2-chlorophenyl)-6-(3,4-methylenedioxyphenyl)-7H-[1,2,4]triazolo[3,4-b][1,3,4]thiadiazine (1 nM to 10 μM final). An aliquot of 45 μL of cells was added to a well of a 96-well microtiter plate containing 5 μL of a 10% DMSO in RPMI-1640 media solution without compound as the control sample for maximal cell proliferation (LMax). The samples were mixed by agitation and then incubated at 37° C. for 48 h in a 5% CO2-95% humidity incubator. After incubation, the samples were removed from the incubator and 25 μL of CellTiter-Glo™ reagent (Promega) was added. The samples were mixed by agitation and incubated at room temperature for 10-15 min. Plates were then read using a luminescent plate reader (Model SPECTRAfluor Plus, Tecan) to give Ltest values.
(§4) The samples were mixed by agitation and then incubated at 37° C. for 0.5 h in a 5% CO2-95% humidity incubator. After incubation, the samples were removed from the incubator and 25 μL of CellTiter-Glo™ reagent (Promega) was added. The samples were mixed by agitation and incubated at […] 10-15 min at room temperature in a 5% CO2-95% humidity incubator. Fluorescence was read as above, (LStart) defining luminescence for initial cell number used as baseline in GI50 determinations.
(§5) Calculation: GI50 (dose for 50% inhibition of cell proliferation) is the concentration where [(Ltest−LStart)/(LMax−LStart)]=0.5.

[6] = system: human Burkitt's lymphoma cell line Namalwa; assay: Inhibition of cell proliferation (GI50), Namalwa; details: Homo sapiens, Burkitts lymphoma cell; Namalwa cells, 48 h, CellTiter-Glo
Experimental: as §3, §4, §5

[7] = system: human leukemia cell line K562; assay: Inhibition of cell proliferation (GI50), K562; details: Homo sapiens; K562 cells, 48 h, CellTiter-Glo
Experimental: as §3, §4, §5

[8] = system: human colon carcinoma cell line HCT116; assay: Inhibition of cell proliferation (GI50), HCT116; details: Homo sapiens; HCT 116 cells, 48 h, CellTiter-Glo
Experimental: as §3, §4, §5

[9] = system: human lymphoma cell line Raji; assay: Inhibition of cell proliferation (GI50), Raji; details: Homo sapiens; Raji cells, 48 h, CellTiter-Glo
Experimental: as §3, §4, §5

[10] = system: human colon carcinoma cell line HCT116; assay: Caspase cascade activation (EC50), HCT116; details: Homo sapiens, HCT-116; HCT116 cells; caspase cascade activation; read-out: caspase potency (EC50) HCT116
Method in brief: as §2

[11] = system: human lymphoma cell line Raji; assay: Caspase cascade activation (EC50), Raji; details: Homo sapiens, RAJI cells, read-out: caspase potency (EC50) RAJI
Experimental: as §1

[12] = system: human cancer cell line H1299; assay: Caspase cascade activation (EC50), H1299; details: NCI-H1299, H1299 cells, read-out: caspase potency (EC50) H1299
Experimental: as §1

Row | EC50 [1] | EC50 [2] | EC50 [3] | EC50 [4] | GI50 [5] | GI50 [6] | GI50 [7] | GI50 [8] | GI50 [9] | EC50 [10] | EC50 [11] | EC50 [12] | SMILES
1 | 262 nM | 173 nM | 148 nM | 253 nM | 176 nM | 579 nM | 219 nM | 1180 nM | 1000 nM | 280 nM | 478 nM |  | COc1ccccc1-c1nnc2n1N=C(c1ccc(O)cc1)CS2 [Example 7, 6-(4-Hydroxyphenyl)-3-(2-methoxyphenyl)-7H-[1,2,4]triazolo[3,4-b][1,3,4]thiadiazine hydrobromide]
2 | 306 nM | 300 nM | 267 nM | 254 nM | 173 nM | 618 nM | 315 nM | 1670 nM | 746 nM | 612 nM | 431 nM |  | COc1ccccc1-c1nnc2n1N=C(c1ccc(OCCO)cc1)CS2 [Example 10, 6-(4-(2-Hydroxyethoxy)phenyl)-3-(2-methoxyphenyl)-7H-[1,2,4]triazolo[3,4-b][1,3,4]thiadiazine]
3 | 20 nM | 760 nM | 61 nM | 20 nM | 5 nM | 6 nM | 7 nM | 50 nM | 15 nM | 71 nM | 55 nM |  | COc1cc(OC)cc(-c2nnc3n2N=C(c2ccc(C)cc2)CS3)c1 [Example 12, 3-(3,5-Dimethoxyphenyl)-6-(4-methylphenyl)-7H-[1,2,4]triazolo[3,4-b][1,3,4]thiadiazine hydrochloride]
4 | 69 nM | 625 nM | 101 nM | 73 nM | 50 nM | 18 nM | 51 nM | 165 nM | 97 nM | 189 nM | 52 nM |  | COc1cc(-c2nnc3n2N=C(c2ccc(C)cc2)CS3)cc(OC)c1O [Example 13, 3-(3,5-Dimethoxy-4-hydroxyphenyl)-6-(4-methylphenyl)-7H-[1,2,4]triazolo[3,4-b][1,3,4]thiadiazine hydrobromide]
5 | 125 nM | 396 nM | 65 nM | 131 nM | 300 nM | 137 nM | 87 nM | 1010 nM | 838 nM | 107 nM | 198 nM |  | COc1ccc(-c2nnc3n2N=C(c2ccc(C)cc2)CS3)cc1OC [Example 14, 3-(3,4-Dimethoxyphenyl)-6-(4-methylphenyl)-7H-[1,2,4]triazolo[3,4-b][1,3,4]thiadiazine hydrobromide]
6 | > 1000 nM | > 10000 nM | 5600 nM | > 1000 nM |  |  |  |  |  | > 10000 nM | > 1000 nM | > 10000 nM | CC(C)Oc1cccc(-c2nnc3n2N=C(c2ccc4c(c2)OCO4)CS3)c1 [Example R1, 3-(3-Isopropyloxyphenyl)-6-(3,4-methylenedioxyphenyl)-7H-[1,2,4]triazolo[3,4-b][1,3,4]thiadiazine]
7 | 316 nM | 323 nM | 226 nM | 313 nM |  |  |  |  |  | 284 nM | 619 nM | 1260 nM | COc1cc(-c2nnc3n2N=C(c2ccccc2)CS3)cc(OC)c1OC [Example S1, 3-(3,4,5-Trimethoxyphenyl)-6-phenyl-7H-[1,2,4]triazolo[3,4-b][1,3,4]thiadiazine]
8 | 498 nM | 2580 nM | 519 nM | 510 nM |  |  |  |  |  | > 10000 nM | 656 nM | 2580 nM | CCOc1ccc(C2=Nn3c(nnc3-c3cc(OC)c(OC)c(OC)c3)SC2)cc1 [Example T1, 3-(3,4,5-Trimethoxyphenyl)-6-(4-ethoxyphenyl)-7H-[1,2,4]triazolo[3,4-b][1,3,4]thiadiazine]
9 | 1270 nM | 2440 nM | 1230 nM | 1180 nM |  |  |  |  |  | > 10000 nM | 2330 nM | 2420 nM | COc1ccc(-c2nnc3n2N=C(c2cc(OC)ccc2OC)CS3)cc1 [H, 3-(4-Methoxyphenyl)-6-(2,5-dimethoxyphenyl)-7H-[1,2,4]triazolo[3,4-b][1,3,4]thiadiazine]
10 | > 1000 nM | 3270 nM | 2550 nM | > 10000 nM |  |  |  |  |  | > 10000 nM | > 1000 nM | 2930 nM | COc1ccc(-c2nnc3n2N=C(c2ccc4c(c2)OCO4)CS3)cc1 [J, 3-(4-Methoxyphenyl)-6-(3,4-methylenedioxyphenyl)-7H-[1,2,4]triazolo[3,4-b][1,3,4]thiadiazine]
11 | > 1000 nM | > 10000 nM | 1630 nM | > 10000 nM |  |  |  |  |  | > 10000 nM | > 1000 nM | > 10000 nM | Clc1cccc(-c2nnc3n2N=C(c2ccc4c(c2)OCO4)CS3)c1 [S, 3-(3-Chlorophenyl)-6-(3,4-methylenedioxyphenyl)-7H-[1,2,4]triazolo[3,4-b][1,3,4]thiadiazine]
12 | 593 nM | 4130 nM | 1360 nM | 558 nM |  |  |  |  |  | 3180 nM | 735 nM | 2850 nM | COc1cccc(-c2nnc3n2N=C(c2ccc(OC)c(OC)c2)CS3)c1 [Y, 3-(3-Methoxyphenyl)-6-(3,4-dimethoxyphenyl)-7H-[1,2,4]triazolo[3,4-b][1,3,4]thiadiazine]
